17 compounds from PubChem BioAssay (NCI) can be followed below.

Some test systems named below: KM12 colon; LOX IMVI melanoma; MALME-3M melanoma; SF-268 CNS; CAKI-1 renal; MOLT-4 leukemia; RXF 393 renal; TK-10 renal.
Holding throughout (assay): NCI anticancer screen, dose series, 48 h

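1) Cells in 96-well plates. 2) Compound, 48 h, 5 concentrations. 3) Linear interpolation between surrounding doses. 4) Unreached endpoint = highest concentration. GI50 is the concentration that inhibits growth by half. At the TGI there is no net growth.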

In the case of `COC(=O)C1=Cc2cc(OC)c(OC)c(OC)c2[C@H](c2cc(OC)c(OC)c(OC)c2)C1C(=O)OC` (some centres not stated), the TGI in the assay on KM12 colon, with LOX IMVI melanoma, in the assay with MALME-3M melanoma, with SF-268 CNS, with CAKI-1 renal and with MOLT-4 leukemia was > 100 µM in each case. The TGI with RXF 393 renal and in the assay on TK-10 renal was > 100 µM in each case.

`CC(=O)Nc1ccc(/C=c2\sc3nnc(CCC(=O)Nc4ccccc4Cl)n3c2=O)cc1`: the TGI with KM12 colon was 46.4 µM; in the assay with LOX IMVI melanoma, 34.5 µM; with MALME-3M melanoma it was > 100 µM; in the assay on SF-268 CNS, 88 µM; in the assay on CAKI-1 renal, > 100 µM; in the assay on MOLT-4 leukemia, 44.7 µM. The TGI was 58.7 µM in the assay with RXF 393 renal and > 100 µM in the assay on TK-10 renal.

Regarding `COc1ccc(C(CCC(C)=O)C(=O)O)cc1OC` (configuration not stated), the TGI in the assay on KM12 colon, in the assay on LOX IMVI melanoma, in the assay with MALME-3M melanoma, in the assay with SF-268 CNS, in the assay on CAKI-1 renal and with RXF 393 renal was > 100 µM in each case. Moreover, the TGI with TK-10 renal is > 100 µM.

Consider `C=C=C(C(=O)OC)S(=O)c1ccccc1[N+](=O)[O-]` (configuration not stated), for which the TGI in the assay with KM12 colon, with MALME-3M melanoma, with SF-268 CNS, in the assay on CAKI-1 renal, with MOLT-4 leukemia and in the assay with RXF 393 renal was > 100 µM throughout. For the same compound, the TGI in the assay with TK-10 renal is > 100 µM.

Consider `COc1cccc2ccc(C(=O)c3ccccc3)nc12`, for which the TGI with KM12 colon, with LOX IMVI melanoma, in the assay with MALME-3M melanoma, in the assay on SF-268 CNS, with CAKI-1 renal and in the assay on MOLT-4 leukemia was > 100 µM each time. Besides, the TGI with TK-10 renal was > 100 µM.

As for `COc1ccc2c(c1)[n+]([O-])c(-c1ccc([N+](=O)[O-])cc1)c(N)[n+]2[O-]`, the TGI with KM12 colon, with MALME-3M melanoma, with SF-268 CNS, with CAKI-1 renal, in the assay on MOLT-4 leukemia and with RXF 393 renal was > 100 µM in each case.

Turning to `CN1C(=O)CCC2[C@@H]3CC=C4C[C@@H](O)CC[C@]4(C)C3CC[C@@]21C` (some centres not stated), the TGI in the assay with KM12 colon is > 100 µM; in the assay with MALME-3M melanoma, > 100 µM; in the assay with CAKI-1 renal, > 100 µM; with MOLT-4 leukemia, 69.6 µM; with RXF 393 renal, > 100 µM; in the assay with TK-10 renal, > 100 µM.

Take `CN(C)c1ccc(/C=C/C(=O)[O-])cc1.CN(C)c1ccc(/C=C/C(=O)[O-])cc1.[Cu+2]`: the TGI in the assay with KM12 colon is > 100 µM; with LOX IMVI melanoma, > 70.8 µM; in the assay on MALME-3M melanoma it was > 100 µM; with SF-268 CNS, > 100 µM; in the assay with CAKI-1 renal, > 100 µM; with MOLT-4 leukemia, > 100 µM. Besides, the TGI with RXF 393 renal and with TK-10 renal was > 100 µM throughout. The GI50 in the assay on RXF 393 renal and in the assay with TK-10 renal was > 100 µM in each case.

Regarding `COC1OC(CO)C(O)C(OC(C)=O)C1NC(=O)N(CCCl)N=O` (configuration not stated), the TGI in the assay with KM12 colon, with LOX IMVI melanoma, in the assay with MALME-3M melanoma, in the assay on SF-268 CNS, with CAKI-1 renal and in the assay on MOLT-4 leukemia was > 100 µM each time. Moreover, the TGI in the assay with RXF 393 renal and in the assay on TK-10 renal was > 100 µM throughout.

As to `O=[N+]([O-])c1ccc(C2CC(c3ccccc3Cl)=Nc3ccccc3S2)cc1` (configuration not stated), the TGI in the assay on KM12 colon is 13.4 µM; with LOX IMVI melanoma, 11.8 µM; in the assay with MALME-3M melanoma, 24.9 µM; in the assay with SF-268 CNS, 18.9 µM; with CAKI-1 renal, > 73.5 µM; in the assay on MOLT-4 leukemia, 5.37 µM. Besides, the TGI was 12.6 µM in the assay on RXF 393 renal and > 79.1 µM in the assay on TK-10 renal.

On to `Cc1cc([N+](=O)[O-])ccc1Sc1c2ccccc2nc2cc(Cl)ccc12`, for which the TGI with KM12 colon was 50.4 µM; in the assay on LOX IMVI melanoma, 86.8 µM; in the assay on MALME-3M melanoma it was > 100 µM; in the assay with SF-268 CNS it was 89.5 µM; with CAKI-1 renal, 84 µM; in the assay with MOLT-4 leukemia, 93.7 µM. In addition, the TGI in the assay with RXF 393 renal and with TK-10 renal was > 100 µM throughout.

Turning to `COc1ccc(OC(C)=O)c2c1CCC=CC2=O`, the TGI came out at 12.6 µM in the assay on KM12 colon; 17.5 µM in the assay on LOX IMVI melanoma; 44.1 µM in the assay on MALME-3M melanoma; 33.1 µM in the assay with MOLT-4 leukemia; 21.6 µM in the assay with RXF 393 renal; 32.2 µM in the assay with TK-10 renal.

In the case of `Nc1c(-c2cn(Cc3ccccc3)c3ccccc23)[n+]([O-])c2ccccc2[n+]1[O-]`, the TGI in the assay with KM12 colon is > 100 µM; with LOX IMVI melanoma it was > 100 µM; in the assay with MALME-3M melanoma it was > 100 µM; in the assay on SF-268 CNS, > 100 µM; in the assay with CAKI-1 renal it was 68 µM; with MOLT-4 leukemia, 92.3 µM. For the same compound, the TGI with TK-10 renal was > 100 µM.

Consider `O=C1/C(=N\O)c2ccccc2S1(=O)=O`, for which the TGI was > 100 µM in the assay on KM12 colon; > 100 µM with LOX IMVI melanoma; > 100 µM in the assay with MALME-3M melanoma; > 100 µM in the assay with SF-268 CNS; 83.7 µM with CAKI-1 renal; > 100 µM with MOLT-4 leukemia. Also, the TGI in the assay on RXF 393 renal and in the assay with TK-10 renal was > 100 µM in each case.

In the case of `C#CCNC(=O)N(CC#C)N=O`, the TGI in the assay on KM12 colon, in the assay on LOX IMVI melanoma, in the assay with MALME-3M melanoma, in the assay with SF-268 CNS, in the assay on CAKI-1 renal and in the assay on MOLT-4 leukemia was > 100 µM throughout. Moreover, the TGI in the assay on RXF 393 renal and with TK-10 renal was > 100 µM throughout.

For `CCN(CC)CC(C)(C)C(=O)/C=C/c1cccc(/C=C/C(=O)C(C)(C)CN(CC)CC)c1`, the TGI with KM12 colon was 1.77 µM; in the assay with LOX IMVI melanoma, 0.37 µM; with MALME-3M melanoma, 3.11 µM; with SF-268 CNS, 1.68 µM; in the assay with CAKI-1 renal, 0.965 µM; in the assay with MOLT-4 leukemia, 0.901 µM. Also, the TGI stood at 1.49 µM in the assay with RXF 393 renal and 2.35 µM in the assay on TK-10 renal.

With `CCOC(=O)C1SC(=Nc2cccc(Cl)c2C)N=C1C` (configuration not stated), the TGI in the assay with KM12 colon was 77.7 µM; with LOX IMVI melanoma it was 32 µM; in the assay with MALME-3M melanoma, 42.4 µM; in the assay with SF-268 CNS it was > 100 µM; with MOLT-4 leukemia, 78.8 µM; with RXF 393 renal it was > 100 µM. The compound further had a TGI in the assay on TK-10 renal of 73.3 µM.
